Measurements reported in patent US20230295201A1 (Gilead Sciences, Inc., priority 2020, published 2023).
Read-outs that look alike come from different tables or passages of the source.

How the values were obtained:
Format in all cases: cell-based
[1] = system: HRV99; test: HRV99 EC50
[2] = system: HRV14; test: HRV14 HELA EC50 (cytopathic effect in H1-HeLa cells); details: 96 h, read-out: HRV14 HELA EC50
Procedure: H1-HeLa cells, cultured in complete RPMI 1640 medium containing 10% heat-inactivated FBS and 1% Penicillin/Streptomycin, were seeded in 96 well plates at 5000 cells/well one day prior to compound dosing and infection. The antiviral activity of each compound was measured in triplicate. Compounds were added directly to the cell cultures in serial 3-fold dilutions using the HP300 digital dispenser (Hewlett Packard, Palo Alto, CA) immediately prior to infection. The plates were transferred to BSL-2 containment and 100 μL of 1/4000 dilution of HRV14 virus stock was added to each well containing cells and serially diluted compounds. Each plate included 6 wells of infected untreated cells and 6 wells of cells containing 5 μM Rupintrivir that served as 0% and 100% virus inhibition control, respectively. Following the infection, test plates were incubated for 96 h in a tissue culture incubator set to 37° C./5% CO2. Following incubation, the H1-HeLa cells were removed from incubation and allowed to equilibrate to 25° C. Cell viability was determined by removing 100 μL of culture medium and adding 100 μL of Cell-Titer Glo viability reagent. The mixtures were incubated on a shaker for 10 minutes at 25° C., and the luminescence signal was quantified on an Envision luminescence plate reader.

[3] = system: HRV10; test: HRV10 HELA EC50
[4] = system: HCV replicon 2A; test: HCV Rep 2A EC50 (replicon luciferase); details: Hepatitis C virus, 72 h
Procedure: (§1) Compounds were serially diluted in ten steps of 1:3 dilutions in 384-well plates. All serial dilutions were performed in four replicates per compound within the same 384-well plate. […] To each well of a black polystyrene 384-well plate (Greiner Bio-one, Monroe, NC), 90 μL of cell culture medium (without Geneticin) containing 2000 suspended HCV replicon cells was added with a Biotek μFlow workstation. For compound transfer into cell culture plates, 0.4 μL of compound solution from the compound serial dilution plate was transferred to the cell culture plate on a Biomek FX workstation. The DMSO concentration in the final assay wells was 0.44%. The plates were incubated for 3 days at 37° C. with 5% CO2 and 85% humidity. The HCV replicon assay was a multiplex assay, able to assess both cytotoxicity and antireplicon activity from the same well. The CC50 assay was performed first. The media in the 384-well cell culture plate was aspirated, and the wells were washed four times with 100 μL of PBS each, using a Biotek ELX405 plate washer. A volume of 50 μL of a solution containing 400 nM calcein AM (Anaspec, Fremont, CA) in 1×PBS was added to each well of the plate with a Biotek μFlow workstation. The plate was incubated for 30 min at room temperature before the fluorescence signal (excitation 490 nm, emission 520 nm) was measured with a Perkin-Elmer Envision plate reader. The EC50 assay was performed in the same wells as the CC50 assay. The calcein-PBS solution in the 384-well cell culture plate was aspirated with a Biotek ELX405 plate washer. A volume of 20 μL of Dual-Glo luciferase buffer (Promega, Madison, WI) was added to each well of the plate with a Biotek μFlow Workstation. The plate was incubated for 10 min at room temperature. A volume of 20 μL of a solution containing a 1:100 mixture of Dual-Glo Stop & Glo substrate (Promega, Madison, WI) and Dual-Glo Stop & Glo buffer (Promega, Madison, WI) was added to each well of the plate with a Biotek μFlow Workstation. The plate was then incubated at room temperature for 10 min before the luminescence signal was measured with a Perkin-Elmer Envision Plate Reader.

[5] = system: Dengue serotype 2 New Guinea C (NGC) strain; test: DENV-2 Huh-7 EC50 (qPCR in Huh7 cells); details: Dengue virus, DENV2, Huh-7, 48 h
Outline: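 Huh7 cells infected 2 h at 37 °C with DENV-2 NGC at MOI 0.1, then plated with graded compound doses (0.25% DMSO) in triplicate. After 48 h, viral RNA quantified by duplex TaqMan RT-qPCR against GAPDH; EC50 normalized to positive control and no-compound wells.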

[6] = system: HCV replicon 1B; test: HCV Rep 1B EC50 (replicon luciferase); details: Hepatitis C virus, 72 h
Procedure: as §1

[7] = system: Dengue 2, New Guinea strain (NGC); test: DENV-2 moDC EC50 (qPCR in human monocyte-derived dendritic cells); details: Dengue virus, DENV2, Dendritic cell; moDCs, 48 hours
Outline: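 Human moDCs (CD14+ monocytes, GM-CSF/IL-4, day 7) were infected 2 h with Vero-derived DENV-2 NGC at MOI=0.1, then plated in 10% serum with graded compound doses (0.25% DMSO) for 48 h. Viral RNA was quantified by duplex TaqMan qPCR against GAPDH; EC50 normalized to positive and no-compound controls.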

[8] = read-out: HCV Rep 2A EC50, replicon cells, 3 days
[9] = read-out: HCV Rep 1B EC50, replicon cells, 3 days

| Structure (SMILES) | EC50 [1] [nM] | EC50 [2] [nM] | EC50 [3] [nM] | EC50 [4, 8] [nM] | EC50 [5] [nM] | EC50 [6, 9] [nM] | EC50 ([4]; replicon cells, 3 days, read-out: HCV Rep 2A EC50) [nM] | EC50 [7] [nM] | EC50 ([2]; H1-HeLa cells) [nM] | EC50 ([6]; replicon cells, 3 days, read-out: HCV Rep 1B EC50) [nM] |
| --- | --- | --- | --- | --- | --- | --- | --- | --- | --- | --- |
| CCC(CC)OC(=O)[C@H](C)NP(=O)(OC[C@@]1(C#N)O[C@@H](c2ccc3c(N)ncnn23)[C@H](O)[C@@H]1O)Oc1ccccc1 (stereo partly drawn) [Example 101, (2S)-pentan-3-yl 2-(((((2R,3S,4R,5S)-5-(4-aminopyrrolo[2,1-f][1,2,4]triazin-7-yl)-2-cyano-3,4-dihydroxytetrahydrofuran-2-yl)methoxy)(phenoxy)phosphoryl)amino)propanoate] | 7340 | 3430 | 1310 | – | – | – | – | – | – | – |
| C[C@H](NP(=O)(OC[C@@]1(C#N)O[C@@H](c2ccc3c(N)ncnn23)[C@H](O)[C@@H]1O)Oc1ccccc1)C(=O)OCC1CC1 (mixture of isomers) [Example 8, (2S)-cyclopropylmethyl 2-(((((2R,3S,4R,5S)-5-(4-aminopyrrolo[2,1-f][1,2,4]triazin-7-yl)-2-cyano-3,4-dihydroxytetrahydrofuran-2-yl)methoxy)(phenoxy)phosphoryl)amino)propanoate] | 1340 | 615 | 179 | – | – | – | – | – | – | – |
| CCC(CC)COC(=O)[C@H](CC)NP(=O)(OC[C@@]1(C#N)O[C@@H](c2ccc3c(N)ncnn23)[C@H](O)[C@@H]1O)Oc1ccccc1 (mixture of isomers) [Example 88, (2S)-2-ethylbutyl 2-(((((2R,3S,4R,5S)-5-(4-aminopyrrolo[2,1-f][1,2,4]triazin-7-yl)-2-cyano-3,4-dihydroxytetrahydrofuran-2-yl)methoxy)(phenoxy)phosphoryl)amino)butanoate] | 4540 | 1690 | 608 | 27700 | > 25000 | 23700 | – | – | – | – |
| CCCCCCCCCCCCCCCCCCOC[C@H](COP(=O)(O)OC[C@@]1(C#N)O[C@@H](c2ccc3c(N)ncnn23)[C@H](O)[C@@H]1O)OCc1ccccc1 [Example 96, ((2R,3S,4R,5S)-5-(4-aminopyrrolo[2,1-f][1,2,4]triazin-7-yl)-2-cyano-3,4-dihydroxytetrahydrofuran-2-yl)methyl ((R)-2-(benzyloxy)-3-(octadecyloxy)propyl) hydrogen phosphate] | 63900 | – | 2320 | – | – | – | 47300 | > 25000 | 12000 | 30700 |
| C[C@H](NP(=O)(OC[C@@]1(C#N)O[C@@H](c2ccc3c(N)ncnn23)[C@H](O)[C@@H]1O)Oc1ccccc1)C(=O)OC1CCCCC1 (stereo partly drawn) [Example 4, (2S)-cyclohexyl 2-(((((2R,3S,4R,5S)-5-(4-aminopyrrolo[2,1-f][1,2,4]triazin-7-yl)-2-cyano-3,4-dihydroxytetrahydrofuran-2-yl)methoxy)(phenoxy)phosphoryl)amino)propanoate] | 1090 | 445 | 144 | 9200 | – | 52700 | – | – | – | – |
| CCC(CC)COC(=O)[C@@H](C)NP(=O)(OC[C@@]1(C#N)O[C@@H](c2ccc3c(N)ncnn23)[C@H](O)[C@@H]1O)Oc1ccccc1 (stereo partly drawn) [Example 82, (2R)-2-ethylbutyl 2-(((((2R,3S,4R,5S)-5-(4-aminopyrrolo[2,1-f][1,2,4]triazin-7-yl)-2-cyano-3,4-dihydroxytetrahydrofuran-2-yl)methoxy)(phenoxy)phosphoryl)amino)propanoate] | 19300 | 9190 | 2680 | – | – | – | – | – | – | – |
| C[C@H](NP(=O)(OC[C@@]1(C#N)O[C@@H](c2ccc3c(N)ncnn23)[C@H](O)[C@@H]1O)Oc1ccccc1)C(=O)OCC(C)(C)C (stereo partly drawn) [Example 92, (2S)-neopentyl 2-(((((2R,3S,4R,5S)-5-(4-aminopyrrolo[2,1-f][1,2,4]triazin-7-yl)-2-cyano-3,4-dihydroxytetrahydrofuran-2-yl)methoxy)(phenoxy)phosphoryl)amino)propanoate] | 639 | 242 | 81 | 2900 | – | 16500 | – | – | – | – |
| CC[C@H](NP(=O)(OC[C@@]1(C#N)O[C@@H](c2ccc3c(N)ncnn23)[C@H](O)[C@@H]1O)Oc1ccccc1)C(=O)OC1CCCCC1 (mixture of isomers) [Example 103, (2S)-cyclohexyl 2-(((((2R,3S,4R,5S)-5-(4-aminopyrrolo[2,1-f][1,2,4]triazin-7-yl)-2-cyano-3,4-dihydroxytetrahydrofuran-2-yl)methoxy)(phenoxy)phosphoryl)amino)butanoate] | 4740 | 2550 | 916 | – | – | – | – | – | – | – |
| CC(C)OC(=O)[C@H](C)NP(=O)(OC[C@@]1(C#N)O[C@@H](c2ccc3c(N)ncnn23)[C@H](O)[C@@H]1O)Oc1ccccc1 (mixture of isomers) [Example 77, Isopropyl ((((2R,3S,4R,5S)-5-(4-aminopyrrolo[2,1-f][1,2,4]triazin-7-yl)-2-cyano-3,4-dihydroxytetrahydrofuran-2-yl)methoxy)(phenoxy)phosphoryl)-L-alaninate] | 4940 | 1810 | 636 | – | – | – | – | – | – | – |
